Assays:
[1] = system: collagen-triggered calcium mobilization in human platelets; assay: Calcium mobilization in human platelet suspensions (Fura-2 AM); type: cell-based; settings: 2.5 and 5 μM, collagen 1 μg/mL, n = 4
Experimental: Adenosine triphosphate (ATP) release and calcium mobilization were assessed as previously described ([Shih et al., 2021]). Luciferase–luciferin and Fura-2 AM were used to detect ATP release and calcium mobilization, respectively. The intensity of luminescence (indicating ATP release) and the fluorescence ratio (340 nm/380 nm) for calcium mobilization were measured using a Hitachi Spectrometer F-7000 (Tokyo, Japan) following the manufacturer’s instructions.
FIGURE 8 Effects of compound 6 on ATP release, calcium mobilization, and GPIIb–IIIa activation triggered by collagen in human platelets. Washed platelets (3.6 × 10^8 cells/mL) were treated with compound 6 (C6, 2.5 and 5 μM) or DMSO and then stimulated with collagen (1 μg/mL) to trigger ATP release (A), calcium mobilization (B), and GPIIb–IIIa activation (C) that were detected using luciferase/luciferin, Fura-2 AM, and APC–PAC1 antibodies, respectively. Data (A–C) are presented as means ± SEM (n = 4). **p < 0.01 and ***p < 0.001 compared with the resting group. #p < 0.05, ##p < 0.01, and ###p < 0.001 compared with the DMSO (solvent control) group.

[2] = system: human platelet suspensions stimulated with collagen; assay: Collagen-induced platelet aggregation (turbidimetric, lumi-aggregometer); type: cell-based
From the text: This study received approval from the Taipei Medical University–Joint Institutional Review Board (TMU-JIRB-No. N202003148) and adhered to the principles of the Declaration of Helsinki. Informed consent was obtained from all volunteers before their participation. Human platelets were washed and prepared according to previously established methods ([Lu et al., 2019]). Whole blood was collected from healthy participants who had not taken any medications, including nonsteroidal anti-inflammatory drugs or aspirin, in the preceding 2 weeks. The blood was drawn into polypropylene tubes containing an acid citrate–dextrose solution (9:1, v/v). After mixing, the samples were centrifuged at 120 g for 10 min. The upper layer of platelet-rich plasma was collected and supplemented with prostaglandin E1 and heparin. Following further centrifugation at 500 g for 10 min, the platelet pellets were washed twice. The platelets were then resuspended in Tyrode’s solution containing 3.5 mg/mL bovine serum albumin (B.S.A.) to create platelet suspensions. The final Ca^2+ concentration of the platelet suspensions (3.6 × 10^8 cells/mL) was 1 mM.
Platelet aggregation was measured using a lumi-aggregometer (Payton, Scarborough, Canada) through the turbidimetric method ([Lu et al., 2019]). Human platelet suspensions (3.6 × 10^8 cells/mL) were treated with compound 6 (1–50 μM) or an isovolumetric solvent control (0.1% DMSO) for 3 min. Subsequently, various agonists were added and platelet aggregation was then recorded for an additional 6 min.
FIGURE 2 Effects of compound 6 on human platelet aggregation triggered by various agonists. (A–C) Washed platelets (3.6 × 10^8 cells/mL) were treated with compound 6 (1–50 μM) or dimethyl sulfoxide (DMSO; solvent control) before adding 1 μg/mL collagen (A), 0.02 U/mL thrombin (B), and 1 μM U46619 (C). Panels A–C present the curve of platelet aggregation, and panel D presents the statistical analysis of panels A–C. Data (D) are presented as means ± SEM (n = 4). ###p < 0.001 compared with the DMSO group.

[3] = system: GPVI signaling (Lyn, Fyn, PLCγ2, PKC substrate p47, Akt, MAPKs); assay: Western blotting of GPVI signaling in collagen-stimulated platelets; type: cell-based, human; settings: collagen 1 μg/mL
Experimental: Western blotting was performed as described previously ([Lien et al., 2017]). Human platelet suspensions (3.6 × 10^8 cells/mL) were pretreated with compound 6 (2.5 and 5 μM) or 0.1% DMSO for 3 min and then treated with collagen for 6 min. After centrifugation, the platelet pellets were immediately resuspended in lysis buffer (200 μL) for 1 h. The supernatants were collected after centrifugation at 5,000 g for 5 min, and the protein extracts (80 μg) were subjected to 8%–12% sodium dodecylsulfate–polyacrylamide gel electrophoresis. The separated proteins were then electrotransferred onto a polyvinylidene fluoride membrane through a semidry transfer (Thermo Fisher, Waltham, MA, United States). The membrane was blocked with TBST (10 mM Tris-base, 100 mM NaCl, and 0.01% Tween-20) containing 5% B.S.A. for 1 h. After being washed three times, the membrane was incubated with various specific primary antibodies (1:1,000). Subsequently, the membrane was incubated with HRP-conjugated antibodies (1:5,000) for 1 h. Immunoreactive bands were developed using an electrochemiluminescence kit and analyzed using Celvin S (Biostep, Burkhardtsdorf, Germany).
FIGURE 5 Effects of compound 6 on the phosphorylation of Fyn, Lyn, PLCγ2, and PKC substrates (p47) induced by collagen in human platelets. (A–D) Washed platelets (3.6 × 10^8 cells/mL) were treated with compound 6 (2.5 and 5 μM) or DMSO before adding collagen (1 μg/mL). Proteins of these samples were separated by Western blotting. These targets (Fyn, Lyn, PLCγ2, and p47) were detected using specific antibodies. Data (A–D) are presented as means ± SEM (n = 5). **p < 0.01 and ***p < 0.001 compared with the resting group. #p < 0.05, ##p < 0.01, and ###p < 0.001 compared with the DMSO (solvent control) group.
FIGURE 6 Effects of compound 6 on the phosphorylation of Akt, and MAPKs induced by collagen in human platelets. Washed platelets (3.6 × 10^8 cells/mL) were treated with compound 6 (2.5 and 5 μM) or DMSO before adding collagen (1 μg/mL). […] Akt (A), p38 MAPK (B), ERK (C), and JNK (D) were detected using specific antibodies. […]

CCCCN1C(=O)c2cccc3c(NCCNC(=O)C45CC6CC(CC(C6)C4)C5)ccc(c23)C1=O [compound 6]
Calcium mobilization [1]: significantly reduce | Antiplatelet effect at the same concentration, compound 6 versus compound 5 ([2]; 5 μM, collagen 1 μg/mL, Supplementary Figure S1): better antiplatelet effects than compound 5 | IC50 ([2]; Platelet, washed human platelets, 1 μg/mL collagen): ~2500 nM | Potency in inhibiting collagen-induced platelet aggregation relative to compound 5 ([2]; comparison with ref Shih et al., 2021): twice as high | Collagen-induced phosphorylation of Akt and MAPKs (ERK, p38 MAPK, JNK) ([3]; 5 μM, n = 4): could be diminished | Collagen-induced Lyn and Fyn phosphorylation ([3]; 2.5 and 5 μM, n = 5): could be reversed | Collagen-induced phosphorylation of PLCγ2 and the substrate of PKC (p47 proteins) ([3]; 2.5 and 5 μM, n = 5): significantly reduced

— article PMC12234328, “A naphthalimide derivative exerts potent antiplatelet and antithrombotic activities without a bleeding tendency” (Frontiers in Pharmacology, 2025)
